{"source": "patent US20220251039A1", "about": "“Diaryl-B-Lactam Compound and Preparation Method and Pharmaceutical Use Thereof” (Fudan University, priority 2016, published 2022)", "key": {"tubulin [1]": {"test_system": "tubulin", "test": "Immunofluorescent analysis of tubulin morphology", "assay_type": "cell-based, human", "conditions": "SKOV-3 cells, 24 h", "method": "After treatment with diluent (0.2% DMSO) or tested compounds at indicated concentrations for 24 h, SKOV-3 cells were fixed with methanol, permeabilized with 0.1% Triton X-100 in PBS and blocked by goat serum. Then the cells were incubated with a-tubulin antibody at 4° C. overnight, followed by incubation with Alexa 488 labeled secondary antibody (Jackson ImmunoResearch) at RT for 1 h. After being stained with DAPI, cells were examined and photographed with a Leica SP5 co-focal fluorescence microscope."}, "tubulin [2]": {"test_system": "tubulin", "test": "Immunoblotting analysis of polymerized/depolymerized tubulin", "assay_type": "cell-based, human", "conditions": "Hela cells, 6 h", "method": "After being treated with diluent (0.2% DMSO), tested compound, CA-4 or PTX for 6 h, Hela cells were lysed with microtubulestabilizing buffer, containing 100 mM PIPES, pH 6.8, 1 mM MgCl2, 2 mM EGTA, 0.5% NP-40, 2 M glycerol, 5 μM PTX and protease inhibitors cocktail (Roche), and the lysate was centrifuged at 15,000 rpm for 15 min. Supernatant containing depolymerized tubulin was carefully collected, whereas pellet (polymerized tubulin) was further dissolved in SDS-lysis buffer (Beyotime, China). Equal amounts of supernatant and dissolved pellet were subjected to immunoblotting analysis as described above using a tubulin antibody (Proteintech)."}, "A2780 cells": {"test_system": "A2780 cells", "test": "Xenografts tumor growth assay in nude mice", "assay_type": "in vivo, Balb/c nude mice", "conditions": "A2780 xenograft", "method": "6 weeks old female Balb/c nude mice were purchased from Shanghai Slac Laboratory Animal Co. Ltd. (Shanghai, China). 2*10^6 A2780 cells suspended in 0.2 mL PBS per mouse was injected subcutaneously into the nude mice. […] Administration of agents or vehicle, or agents and measurement of tumor volumes with a digital caliper was done once every 2 days. Tumor volumes were calculated as volume=shortest diameter (W)^2*longest diameter (L)*0.52. When the average tumor volumes of vehicle treated group reached 2000 mm^3 in diameter, the mice were sacrificed and the tumors were isolated and weighed. Visceral organs of the mice as well as solid tumors were further analyzed by H&E staining."}, "MDA-MB-231 cells": {"test_system": "MDA-MB-231 cells", "test": "Colony formation assay", "assay_type": "cell-based, human", "conditions": "48 h treatment, 7-10 days growth", "method": "1000 MDA-MB-231 cells per well were seeded into 6-well plate at a single cell density and were cultured at 37° C. for 48 h. After being treated with indicated concentrations of 69, 70 and 97, CA-4 as positive control, or diluent (0.2% DMSO) as negative control for 48 h, the agents containing medium was replaced by fresh medium to allow cell growth for additional 7-10 days. Then the cells were fixed with methanol and stained with gentian violet for 30 min. The number of colonies which consisted of more than 50 cells were counted. The results were indicated as mean values from three independent determinations."}, "KM mice": {"test_system": "KM mice", "test": "Acute toxicity assay", "assay_type": "in vivo", "method": "KM mice were housed individually in a specific pathogen free facility. Groups of mice (n=10 per group, half male and half female) were injected intraperitoneally once with various dosages of 69 (95, 70, 50, 35, 25 mg/kg), 70 (500, 425, 350, 275, 200 mg/kg), 97 (275, 200, 150, 125 and 100 mg/kg) or vehicle (8.3% cremohorp EL and 8.3% alcohol in PBS) as negative control, respectively. 69, 70 and 97 was dissolved in cremeohore EL and alcohol mixture (1:1, v/v) and further diluted with PBS (1:5, v/v). The death of mice were monitored daily and recorded up to 14 days after injection."}, "cellular apoptosis": {"test_system": "cellular apoptosis", "test": "Cell apoptosis analysis (Annexin V/PI)", "assay_type": "cell-based", "conditions": "48 h, Annexin-V/PI flow cytometry", "method": "Cell apoptosis was detected using FITC Annexin V Apoptosis Detection Kit (BD Biosciences) according to manufacturer's instructions. Briefly, cells were incubated with indicated concentrations of 69, 70 and 97, CA-4 as positive control or diluent (0.2% DMSO) as negative control for 48 h. Then the cells were harvested, washed twice with PBS, and re-suspended in binding buffer. After being stained with Annexin-V and PI for 15 min in the dark place, cells were subjected to flow cytometry (Cytomics FC 500 MPL, Beckman Coulter) analysis. The results were indicated as mean values from three independent determinations."}, "[3]": {"test_system": "p-histone H3, cyclin B1 and BuBR1", "test": "Cell cycle associated proteins assay", "assay_type": "cell-based, human", "conditions": "HeLa cells, 24 h, Western blot and qPCR", "method": "A. HeLa cells were treated with 69, 70, 97 or DMSO for 24 h. After being harvested, the cells were lysed, and the concentrations of total protein were determined by BCA protein assay kit (Beyotime, China). […] The membrane was blocked with 5% BSA in TBST for 1.5 h, then incubated overnight with specific primary antibodies (Proteintech) at 4° C. After being washed three times by TBST, the membrane was incubated with specific secondary antibodies (Abnova, Taipei, China) at room temperature for 2 h. Finally, chemiluminescent reagents (Millipore) were employed to detect the protein bands.\n(§1) B. Quantitative PCR assay: HeLa cells were treated with 69, 70 or 97. The expression level of mRNA of target proteins was tested with qPCR kit (Takara)."}, "[4]": {"test_system": "Bax, p53 and cleaved-PARP", "test": "Expression level of apoptosis associated proteins", "assay_type": "cell-based, human", "conditions": "HeLa cells, Western blot and qPCR", "method": "A. Western blotting: After being treated with candidate compound, cells were harvested and lysed. Then, the lysate was isolated by ultracentrifuge and quantified by BCA assay according to the protocol. After being denatured, equivalent protein of each sample was separated by SDS-PAGE gel and wet-transferred onto […] nitrocellulose membrane. After being blocked by PBS containing 5% skim milk, the membrane was incubated with primary antibody at 4° C. overnight and secondary antibody at room temperature for 2 h and then visualized by enhanced chemiluminescence kit (Thermo Fisher, USA), sequentially.\nas §1"}}, "note": "Entries after “also recorded” stand apart in the source; their conditions may differ.", "data": [{"smiles": "C=C1C(=O)N(c2cc(OC)c(OC)c(OC)c2)[C@H]1c1ccc(OC)c(O)c1", "note": "[Compound 1, (S)-4-(3-hydroxy-4-methoxyphenyl)-3-methylene-1-(3,4,5-trimethoxyphenyl)azetidin-2-one]", "values": [{"measurement": "tubulin assembly (immunofluorescence)", "setting": "tubulin [1]", "value": "significantly inhibit tubulin aggregation"}, {"measurement": "polymerized tubulin (immunoblotting)", "setting": "tubulin [2]", "value": "significantly inhibit tubulin aggregation"}]}, {"smiles": "COc1ccc([C@H]2[C@H](CO)C(=O)N2c2cc(OC)c(OC)c(OC)c2)cc1O", "note": "[Compound 69, (3R,4R)-4-(3-hydroxy-4-methoxyphenyl)-3-(hydroxymethyl)-1-(3,4,5-trimethoxyphenyl)azetidin-2-one]", "values": [{"measurement": "tumor growth in vivo", "setting": "A2780 cells; i.p. once every 2 days, 69 7.5 mg/kg, 70 12.5 mg/kg, 97 4 or 8 mg/kg", "value": "significantly inhibit tumor growth in vivo; also recorded: anti-tumor activities in vivo"}, {"measurement": "H&E staining of liver, kidney and spleen", "setting": "A2780 cells; treated groups", "value": "no abnormal areas are observed in tissue staining of liver, kidney and spleen; also recorded: no detectable abnormalities were observed in liver, kidney and spleen"}, {"measurement": "H&E staining of tumor sections (necrosis)", "setting": "A2780 cells; treated groups", "value": "cause tumor tissue to produce necrotic areas; also recorded: extensive areas of necrosis or cell death"}, {"measurement": "colony formation", "setting": "MDA-MB-231 cells", "value": "significantly inhibit the formation of colonies of cancer cells"}, {"measurement": "No. of dead mice 5-14 days", "setting": "KM mice; 25 mg/kg i.p. once", "value": 0}, {"measurement": "No. of dead mice 1 day", "setting": "KM mice; 25 mg/kg i.p. once", "value": 0}, {"measurement": "No. of dead mice 2 days", "setting": "KM mice; 25 mg/kg i.p. once", "value": 0}, {"measurement": "No. of dead mice 3 days", "setting": "KM mice; 25 mg/kg i.p. once", "value": 0}, {"measurement": "No. of dead mice 4 days", "setting": "KM mice; 25 mg/kg i.p. once", "value": 0}, {"measurement": "No. of dead mice Total death", "setting": "KM mice; 25 mg/kg i.p. once", "value": 0}, {"measurement": "Survival (%) on day 14", "setting": "KM mice; 25 mg/kg i.p. once", "value": 100, "unit": "%"}, {"measurement": "No. of dead mice 5-14 days", "setting": "KM mice; 35 mg/kg i.p. once", "value": 0}, {"measurement": "No. of dead mice 1 day", "setting": "KM mice; 35 mg/kg i.p. once", "value": 0}, {"measurement": "No. of dead mice 2 days", "setting": "KM mice; 35 mg/kg i.p. once", "value": 0}, {"measurement": "No. of dead mice 3 days", "setting": "KM mice; 35 mg/kg i.p. once", "value": 1}, {"measurement": "No. of dead mice 4 days", "setting": "KM mice; 35 mg/kg i.p. once", "value": 0}, {"measurement": "No. of dead mice Total death", "setting": "KM mice; 35 mg/kg i.p. once", "value": 1}, {"measurement": "Survival (%) on day 14", "setting": "KM mice; 35 mg/kg i.p. once", "value": 90, "unit": "%"}, {"measurement": "No. of dead mice 5-14 days", "setting": "KM mice; 50 mg/kg i.p. once", "value": 0}, {"measurement": "No. of dead mice 1 day", "setting": "KM mice; 50 mg/kg i.p. once", "value": 0}, {"measurement": "No. of dead mice 2 days", "setting": "KM mice; 50 mg/kg i.p. once", "value": 0}, {"measurement": "No. of dead mice 3 days", "setting": "KM mice; 50 mg/kg i.p. once", "value": 1}, {"measurement": "No. of dead mice 4 days", "setting": "KM mice; 50 mg/kg i.p. once", "value": 0}, {"measurement": "No. of dead mice Total death", "setting": "KM mice; 50 mg/kg i.p. once", "value": 1}, {"measurement": "Survival (%) on day 14", "setting": "KM mice; 50 mg/kg i.p. once", "value": 90, "unit": "%"}, {"measurement": "No. of dead mice 5-14 days", "setting": "KM mice; 70 mg/kg i.p. once", "value": 1}, {"measurement": "No. of dead mice 1 day", "setting": "KM mice; 70 mg/kg i.p. once", "value": 0}, {"measurement": "No. of dead mice 2 days", "setting": "KM mice; 70 mg/kg i.p. once", "value": 0}, {"measurement": "No. of dead mice 3 days", "setting": "KM mice; 70 mg/kg i.p. once", "value": 4}, {"measurement": "No. of dead mice 4 days", "setting": "KM mice; 70 mg/kg i.p. once", "value": 2}, {"measurement": "No. of dead mice Total death", "setting": "KM mice; 70 mg/kg i.p. once", "value": 7}, {"measurement": "Survival (%) on day 14", "setting": "KM mice; 70 mg/kg i.p. once", "value": 30, "unit": "%"}, {"measurement": "No. of dead mice 5-14 days", "setting": "KM mice; 95 mg/kg i.p. once", "value": 1}, {"measurement": "No. of dead mice 1 day", "setting": "KM mice; 95 mg/kg i.p. once", "value": 0}, {"measurement": "No. of dead mice 2 days", "setting": "KM mice; 95 mg/kg i.p. once", "value": 0}, {"measurement": "No. of dead mice 3 days", "setting": "KM mice; 95 mg/kg i.p. once", "value": 6}, {"measurement": "No. of dead mice 4 days", "setting": "KM mice; 95 mg/kg i.p. once", "value": 1}, {"measurement": "No. of dead mice Total death", "setting": "KM mice; 95 mg/kg i.p. once", "value": 8}, {"measurement": "Survival (%) on day 14", "setting": "KM mice; 95 mg/kg i.p. once", "value": 20, "unit": "%"}, {"measurement": "cellular apoptosis", "setting": "cellular apoptosis", "value": "significantly promote apoptosis; also recorded: significantly induce cellular apoptosis"}, {"measurement": "expression of p-histone H3, cyclin B1 and BuBR1", "setting": "[3]", "value": "significantly promote the expression of phosphorylated histone H3, cyclin B1, and mitotic checkpoint protein BuBR1"}, {"measurement": "tubulin assembly (immunofluorescence)", "setting": "tubulin [1]", "value": "significantly inhibit tubulin aggregation; also recorded: strongly inhibit tubulin assembly in cancer cells"}, {"measurement": "expression of Bax, p53 and cleaved-PARP", "setting": "[4]", "value": "significantly promote the expression of the proapoptotic protein Bax, the tumor suppressor gene p53, and the cleaved DNA repair enzyme; also recorded: significantly induce the expression of Bax, p53 and cleaved-PARP"}, {"measurement": "polymerized tubulin (immunoblotting)", "setting": "tubulin [2]", "value": "significantly inhibit tubulin aggregation; also recorded: dramatically reduction of polymerized tubulin"}]}]}
